Reference: the Kinase Knowledgebase extract (Sharma et al. 2016)

Experiments:
PIK3CG (human) = PIK3CG (human) (UniProt P48736); assay: Assessment of PIK3CG Kinase Activity
PIK3CD (Human) [1] = molecular target: PIK3CD (Human) (UniProt O00329); assay: Enzyme Assay
PIK3CD (Human) [2] = molecular target: PIK3CD (Human) (UniProt O00329); assay: Cell-Based Assay; settings: u937
PIK3CA (human) = PIK3CA (human) (UniProt P42336); assay: Assessment of PIK3CA Kinase Activity
PIK3CA (human), sequence (P42336 whole entry, looked up): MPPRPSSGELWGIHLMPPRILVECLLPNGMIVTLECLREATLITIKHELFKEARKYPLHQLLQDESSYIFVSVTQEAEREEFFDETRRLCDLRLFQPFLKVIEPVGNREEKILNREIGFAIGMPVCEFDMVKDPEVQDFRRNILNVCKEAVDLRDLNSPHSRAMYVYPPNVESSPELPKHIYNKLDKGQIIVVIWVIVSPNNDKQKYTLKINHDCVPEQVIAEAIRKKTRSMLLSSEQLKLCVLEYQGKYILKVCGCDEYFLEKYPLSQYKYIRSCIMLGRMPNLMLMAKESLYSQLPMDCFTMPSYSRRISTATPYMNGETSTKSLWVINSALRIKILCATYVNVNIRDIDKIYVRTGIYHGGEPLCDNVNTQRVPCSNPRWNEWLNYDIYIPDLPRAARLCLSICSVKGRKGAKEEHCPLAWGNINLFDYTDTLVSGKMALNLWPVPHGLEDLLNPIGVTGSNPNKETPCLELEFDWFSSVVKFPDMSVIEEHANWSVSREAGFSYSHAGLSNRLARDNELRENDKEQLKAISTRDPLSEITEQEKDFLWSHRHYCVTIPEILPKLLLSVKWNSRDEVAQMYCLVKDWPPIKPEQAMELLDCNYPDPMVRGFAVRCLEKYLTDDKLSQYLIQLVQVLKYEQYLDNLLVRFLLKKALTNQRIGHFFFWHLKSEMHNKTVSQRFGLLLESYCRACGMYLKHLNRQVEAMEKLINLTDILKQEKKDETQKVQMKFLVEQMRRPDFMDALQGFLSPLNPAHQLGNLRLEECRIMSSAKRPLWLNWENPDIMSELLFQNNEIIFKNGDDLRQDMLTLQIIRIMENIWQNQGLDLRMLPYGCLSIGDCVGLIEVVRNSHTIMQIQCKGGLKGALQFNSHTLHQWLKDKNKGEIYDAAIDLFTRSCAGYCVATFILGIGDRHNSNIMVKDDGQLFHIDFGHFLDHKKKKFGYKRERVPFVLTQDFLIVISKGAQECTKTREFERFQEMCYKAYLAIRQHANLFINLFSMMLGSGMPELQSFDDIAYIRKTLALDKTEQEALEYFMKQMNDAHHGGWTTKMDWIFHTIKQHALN

PIK3CD (Human), sequence (O00329 whole entry, looked up): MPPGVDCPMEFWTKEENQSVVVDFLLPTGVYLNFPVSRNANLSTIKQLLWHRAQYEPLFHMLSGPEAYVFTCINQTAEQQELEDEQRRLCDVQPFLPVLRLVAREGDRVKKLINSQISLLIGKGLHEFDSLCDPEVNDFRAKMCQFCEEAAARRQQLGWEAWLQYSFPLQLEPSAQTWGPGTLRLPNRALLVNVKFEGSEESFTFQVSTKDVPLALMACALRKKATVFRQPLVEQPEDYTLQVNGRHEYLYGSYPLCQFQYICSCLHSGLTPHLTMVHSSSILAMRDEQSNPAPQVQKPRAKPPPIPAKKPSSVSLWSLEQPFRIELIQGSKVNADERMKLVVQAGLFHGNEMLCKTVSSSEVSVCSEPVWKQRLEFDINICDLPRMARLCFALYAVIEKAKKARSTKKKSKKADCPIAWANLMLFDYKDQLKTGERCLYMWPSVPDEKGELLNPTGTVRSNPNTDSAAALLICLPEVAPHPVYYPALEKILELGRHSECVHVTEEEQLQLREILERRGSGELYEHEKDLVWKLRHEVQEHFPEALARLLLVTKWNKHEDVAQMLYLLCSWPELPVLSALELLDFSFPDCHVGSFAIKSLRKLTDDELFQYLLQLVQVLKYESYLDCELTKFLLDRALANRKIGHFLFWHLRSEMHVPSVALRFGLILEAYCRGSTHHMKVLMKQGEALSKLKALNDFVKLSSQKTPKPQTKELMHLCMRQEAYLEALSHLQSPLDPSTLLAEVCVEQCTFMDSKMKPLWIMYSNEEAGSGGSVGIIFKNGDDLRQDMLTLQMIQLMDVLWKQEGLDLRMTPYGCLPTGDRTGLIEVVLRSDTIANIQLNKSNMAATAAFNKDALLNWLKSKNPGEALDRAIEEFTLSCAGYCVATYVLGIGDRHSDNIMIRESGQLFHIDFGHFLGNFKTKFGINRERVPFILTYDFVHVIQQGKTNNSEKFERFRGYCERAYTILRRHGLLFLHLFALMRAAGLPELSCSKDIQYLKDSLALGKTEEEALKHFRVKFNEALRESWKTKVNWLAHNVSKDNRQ
PIK3CG (human), sequence (P48736 whole entry, looked up): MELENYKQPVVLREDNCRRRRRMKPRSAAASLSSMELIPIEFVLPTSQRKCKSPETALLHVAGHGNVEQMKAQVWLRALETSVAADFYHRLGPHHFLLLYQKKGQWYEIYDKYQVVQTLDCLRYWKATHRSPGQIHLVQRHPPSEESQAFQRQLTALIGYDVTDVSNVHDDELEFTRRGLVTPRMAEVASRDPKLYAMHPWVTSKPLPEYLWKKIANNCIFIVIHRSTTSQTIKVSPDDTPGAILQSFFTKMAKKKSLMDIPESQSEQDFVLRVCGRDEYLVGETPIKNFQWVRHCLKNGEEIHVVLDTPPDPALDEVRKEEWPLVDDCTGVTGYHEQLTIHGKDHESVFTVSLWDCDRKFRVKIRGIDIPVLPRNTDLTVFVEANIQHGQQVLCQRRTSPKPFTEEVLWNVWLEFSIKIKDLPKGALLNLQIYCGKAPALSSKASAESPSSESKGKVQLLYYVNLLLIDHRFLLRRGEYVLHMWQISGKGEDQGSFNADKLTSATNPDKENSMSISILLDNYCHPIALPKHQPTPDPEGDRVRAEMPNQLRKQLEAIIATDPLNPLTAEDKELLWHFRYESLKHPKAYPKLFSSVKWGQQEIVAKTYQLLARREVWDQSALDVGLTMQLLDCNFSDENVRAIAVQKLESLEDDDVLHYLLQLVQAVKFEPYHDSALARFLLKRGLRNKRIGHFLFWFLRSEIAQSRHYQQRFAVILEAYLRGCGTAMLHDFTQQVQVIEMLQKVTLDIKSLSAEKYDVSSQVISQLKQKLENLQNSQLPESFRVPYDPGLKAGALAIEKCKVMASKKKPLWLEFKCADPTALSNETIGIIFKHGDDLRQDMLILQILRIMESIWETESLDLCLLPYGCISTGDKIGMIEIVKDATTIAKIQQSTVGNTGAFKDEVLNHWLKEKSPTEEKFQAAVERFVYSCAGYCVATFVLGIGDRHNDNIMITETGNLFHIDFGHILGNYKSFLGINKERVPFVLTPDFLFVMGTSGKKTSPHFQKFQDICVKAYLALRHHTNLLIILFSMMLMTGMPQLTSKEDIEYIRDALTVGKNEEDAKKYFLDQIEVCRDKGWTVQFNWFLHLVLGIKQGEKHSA

| IC50 (PIK3CG (human)) [nM] | IC50 (PIK3CD (Human) [1]) [nM] | IC50 (PIK3CD (Human) [2]) [nM] | IC50 (PIK3CA (human)) [nM] | SMILES |
| --- | --- | --- | --- | --- |
| 50 to 1000 | < 50 | < 10 | 50 to 1000 | C#Cc1cccc2nc(Cn3nc(-c4ccc(O)cc4)c4c(N)ncnc43)n(Cc3cccc(C#N)c3)c(=O)c12 |
| 50 to 1000 | < 50 | < 10 |  | COCCOCCOCC#Cc1cccc2nc(Cn3nc(-c4cccc(O)c4)c4c(N)ncnc43)n(Cc3ccccc3Cl)c(=O)c12 |
| < 50 | < 50 | < 10 | 1490 | Nc1ncnc2c1c(-c1ccc(O)cc1)nn2Cc1nc2cccc(C#CCCCC(=O)NC3CCNC3)c2c(=O)n1Cc1ccccc1Cl (centres undefined) |
| < 50 | < 50 | < 10 | 50 to 1000 | CC(=O)NCC(=O)NCC#Cc1cccc2nc(Cn3nc(-c4cccc(O)c4)c4c(N)ncnc43)n(Cc3ccccc3Cl)c(=O)c12 |
| < 50 | < 50 | < 10 | 50 to 1000 | Cc1cnc(Cn2c(Cn3nc(-c4cccc(O)c4)c4c(N)ncnc43)nc3cccc(C#CCCCC(=O)N4CCOCC4)c3c2=O)cn1 |
| 50 to 1000 | < 50 | < 10 | 50 to 1000 | COCCOCC#Cc1cccc2nc(Cn3nc(-c4cccc(O)c4)c4c(N)ncnc43)n(Cc3ccccc3Cl)c(=O)c12 |
|  |  | < 10 |  | COCC#Cc1cccc2nc(Cn3nc(-c4ccc(O)cc4)c4c(N)ncnc43)n(Cc3ccccc3Cl)c(=O)c12 |
|  |  | < 10 |  | COc1cc(-c2nn(Cc3nc4cccc(C#CCCCC(=O)N5CCOCC5)c4c(=O)n3Cc3ccccc3Cl)c3ncnc(N)c23)ccc1O |
|  |  | < 10 |  | C#Cc1cccc2nc(Cn3nc(-c4cccc(O)c4)c4c(N)ncnc43)n(Cc3cccc(C(F)(F)F)c3)c(=O)c12 |
|  |  | 10 to 1000 |  | Nc1ncnc2c1c(-c1cccc(O)c1)nn2Cc1nc2cccc(C#CCCCC(=O)Nc3ccncc3)c2c(=O)n1Cc1ccccc1Cl |
|  |  | < 10 |  | C#Cc1cccc2nc(Cn3nc(-c4cccc(O)c4)c4c(N)ncnc43)n(Cc3ccc(S(C)(=O)=O)cc3)c(=O)c12 |

| SMILES | IC50 (PIK3CG (human)) [nM] | IC50 (PIK3CD (Human) [1]) [nM] | IC50 (PIK3CD (Human) [2]) [nM] | IC50 (PIK3CA (human)) [nM] |
| --- | --- | --- | --- | --- |
| C#Cc1cccc2nc(Cn3nc(-c4ccc(O)cc4)c4c(N)ncnc43)n(Cc3ccccc3Cl)c(=O)c12 |  |  | < 10 |  |
